Consider six compounds from PubChem BioAssay (NCI).

Test systems include NCI-H23 lung; PC-3 prostate; MDA-MB-231 breast; BT-549 breast; TK-10 renal; K-562 leukemia; U251 CNS; MDA-MB-435; UACC-257 melanoma; A498 renal.
Holding throughout (test): NCI tumour cell line growth inhibition, 48 h

SMILES strings stand for the structures.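 A five-concentration, 48-hour dose response in 96-well plates underlies each endpoint, interpolated linearly between surrounding concentrations. At the TGI there is no net growth.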

For `COc1ccc(/C(=N/O)c2ccccc2-c2nc3ccccc3c(=O)n2-c2ccc(S(=O)(=O)Nc3ncccn3)cc2)cc1C`, the TGI in the experiment with NCI-H23 lung is 27.6 µM; in the experiment with PC-3 prostate, greater than 31.6 µM; in the experiment with MDA-MB-231 breast it was greater than 31.6 µM; in the experiment with BT-549 breast, 31.3 µM; in the experiment on TK-10 renal, greater than 31.6 µM; with K-562 leukemia it was 21.6 µM. For the same compound, the TGI in the experiment on U251 CNS was 22.9 µM; in the experiment on MDA-MB-435, 27.3 µM; with UACC-257 melanoma, 30.5 µM; in the experiment with A498 renal, greater than 31.6 µM.

`O=c1c2ncn(C3CC(O)C(CO)O3)c2nnn1Cc1ccccc1[N+](=O)[O-]` (stereo not given): the TGI in the experiment on NCI-H23 lung, with PC-3 prostate, in the experiment on MDA-MB-231 breast, with BT-549 breast, in the experiment on TK-10 renal and with K-562 leukemia was greater than 100 µM throughout. In addition, the TGI in the experiment with U251 CNS, with MDA-MB-435, with UACC-257 melanoma and in the experiment on A498 renal was greater than 100 µM throughout.

For `O=C1C(c2c(O)[nH]c3ccc(S(=O)(=O)O)cc23)=Nc2ccccc21`, the TGI with NCI-H23 lung, with PC-3 prostate, in the experiment on MDA-MB-231 breast, with BT-549 breast, in the experiment on TK-10 renal and in the experiment with K-562 leukemia was greater than 100 µM in each case. For the same compound, the TGI in the experiment on U251 CNS, in the experiment on MDA-MB-435, in the experiment with UACC-257 melanoma and with A498 renal was greater than 100 µM in each case.

As to `O=C(O)[C@@H]1C[C@@H](O)CN1C(=O)OCc1ccccc1`, the TGI with NCI-H23 lung, in the experiment on PC-3 prostate, in the experiment on MDA-MB-231 breast, with BT-549 breast, in the experiment with TK-10 renal and with K-562 leukemia was greater than 100 µM in each case. For the same compound, the TGI with U251 CNS, in the experiment on MDA-MB-435, in the experiment with UACC-257 melanoma and in the experiment on A498 renal was greater than 100 µM each time.

For the compound `NC(CSCc1ccccc1)C(=O)O` (stereo not given), the TGI with NCI-H23 lung, with PC-3 prostate, in the experiment on MDA-MB-231 breast, in the experiment on BT-549 breast, in the experiment with TK-10 renal and with K-562 leukemia was greater than 100 µM in each case. Besides, the TGI in the experiment with U251 CNS, in the experiment on MDA-MB-435, in the experiment on UACC-257 melanoma and in the experiment on A498 renal was greater than 100 µM each time.

Consider `COc1cc(OCc2ccc3oc(=O)c(-c4ccccc4)nc3c2)cc(OC)c1OC`, for which the TGI in the experiment with NCI-H23 lung, with PC-3 prostate, in the experiment on MDA-MB-231 breast, with BT-549 breast, in the experiment on TK-10 renal and with K-562 leukemia was greater than 100 µM in each case. In addition, the TGI with U251 CNS, in the experiment with MDA-MB-435, with UACC-257 melanoma and in the experiment on A498 renal was greater than 100 µM throughout.
